Test results: patent US5567716A, “Trans and cis traumatic acid salts having cicatrizant activity associated to bacteriostatic, antiviral, antibiotic or antifungal activity” (priority 1992, dated 1996)
Read-outs that look alike come from different tables or passages of the source.

Experiments:
St.aureus ATCC 65380 = experiment: Evaluation of bacteriostatic minimal concentration (BMC); format: cell-based; conditions: for MINIMAL BACTERIAL CONCENTRATION: Table 2.b)2, test concentrations given in μg/ml
Experimental: (§1) 1. Culture Medium: Tryprone Soy Broth (TBS) - Biogenetics
(§2) Microbic standard strains from American Type Culture Collection (ATCC) were used, chosen among aerobic Gram positive and negative as follows:
(§3) The broths culture of the different species are prepared growing the standard strain (kept in Tryptic Soy Agar (TSA) slent at 5° C.) in Tryptone Soy Broth (TSB) for 12 hours at 37° C. 10 ml are then taken up from each culture, centrifugated for 3 times at 3500 PM washing each time the sediment using 10 ml of sterile saline solution. The sediment is resuspended in the saline solution until obtainment of a turbidity corresponding to the Mc Farland standard solution (the suspension title must be […] UFC/ml).
(§4) The compounds, dissolved as stock solution, were added to test tubes containing 5 ml TBS in order to obtain the desired Final concentration 10000; 5000; 1000; 200; 40; 2; 0.4; 0.05 μg/ml (culture medium maximal dilution=1/10).
(§5) 50 μl of bacterial suspension are added to the tube containing the compounds to be tested and incubated at 37° C.: the densitometric determination is made in comparison with Mc Farland standard solution 24 and 48 hours later.
(§6) After the incubation time the suspensions ape gently agitated; 50 μl of each suspension are inoculated in tubes containing […] of TSB and incubated at 37° C.; the densitometric determination is made 48 hours later.
(§7) BMC is defined by comparison between the two densitometric evaluation.

Ps.aeruginosa ATCC 35422 = experiment: as above; format: cell-based; conditions: for MINIMAL BACTERIAL CONCENTRATION: Table 2.b)1, test concentrations given in μg/ml
Experimental: as §1, §2, §3, §4, §5, §6, §7

[1] = test system: St.epidermidis ATCC 14990; experiment: as above; format: cell-based; conditions: test concentrations given in μg/ml; for MINIMAL BACTERIAL CONCENTRATION: Table 2.b)4
Experimental: as §1, §2, §3, §4, §5, §6, §7

C.albicans ATCC 10231 = experiment: as above; format: cell-based; conditions: test concentrations given in μg/ml; for MINIMAL BACTERIAL CONCENTRATION: Table 2.b)6
Experimental: as §1, §2, §3, §4, §5, §6, §7

B.subtilis ATCC 6633 = experiment: as above; format: cell-based; conditions: test concentrations given in μg/ml; for MINIMAL BACTERIAL CONCENTRATION: Table 2.b)5
Experimental: as §1, §2, §3, §4, §5, §6, §7

[2] = for organic solvent solubility: dmso
E.coli ATCC 35218 = experiment: microbe, parasite or virus in culture; format: cell-based; conditions: for MINIMAL BACTERIAL CONCENTRATION: Table 2.b)3, test concentrations given in μg/ml
Experimental: as §1, §2, §3, §4, §5, §6, §7

[3] = Physical chemical characteristics: solubility in water and organic solvents
Balb/C 3T3 fibroblasts = experiment: Cell growth of Balb/C 3T3 fibroblasts, crystal violet colorimetry (1.1b); format: cell-based, Mouse; conditions: for promotion of cell growth: 10^-5 to 10^-7 M, lincomycin > rolitetracycline > erythromycin salt; for promotion of cell growth / cell growth effect compared to traumatic acid: in words; for cell growth t2/t1: 48 h/24 h, control 76.776
Experimental: Mouse Balb/C 3T3 fibroblasts were grown in DMEM medium supplemented with penicillin (100 units/ml) and streptomycin (0.1 mg/ml). For experimental purposes, cells are routinely inoculated in […] diameter culture dishes (5000cells/dish) and cultured overnight.
The compounds to be tested are solubilized in DMEM+10%FCS and DMSO to obtain the final concentration of 10^-5 M, 10^-6 M e 10^-7 M in 0.05% DMSO.
The cells number is measured 4, 24 and 48 hours after seeding. The cell growth is evaluated as t2/t1 ratio (%).

[4] = 4 h (t0), 10^-5M, control 0.300
[5] = 4 h (t0), 10^-6M, control 0.300
[6] = 4 h (t0), 10^-7M, control 0.300
[7] = 24 h (t1), 10^-5M, control 0.481
[8] = 24 h (t1), 10^-6M, control 0.481
[9] = 24 h (t1), 10^-7M, control 0.481
[10] = 48 h (t2), 10^-5M, control 0.849
[11] = 48 h (t2), 10^-6M, control 0.849
[12] = 48 h (t2), 10^-7M, control 0.849

Compound | MINIMAL BACTERIAL CONCENTRATION (St.aureus ATCC 65380) | MINIMAL BACTERIAL CONCENTRATION (Ps.aeruginosa ATCC 35422) | MINIMAL BACTERIAL CONCENTRATION [1] | MINIMAL BACTERIAL CONCENTRATION (C.albicans ATCC 10231) | MINIMAL BACTERIAL CONCENTRATION (B.subtilis ATCC 6633) | organic solvent solubility [2] | MINIMAL BACTERIAL CONCENTRATION (E.coli ATCC 35218) | organic solvent solubility ([3]; in DMSO) | water solubility ([3]; water, in words) | promotion of cell growth (Balb/C 3T3 fibroblasts) | Cell density (Balb/C 3T3 fibroblasts; [4]) | Cell density (Balb/C 3T3 fibroblasts; [5]) | Cell density (Balb/C 3T3 fibroblasts; [6]) | Cell density (Balb/C 3T3 fibroblasts; [7]) | Cell density (Balb/C 3T3 fibroblasts; [8]) | Cell density (Balb/C 3T3 fibroblasts; [9]) | Cell density (Balb/C 3T3 fibroblasts; [10]) | Cell density (Balb/C 3T3 fibroblasts; [11]) | Cell density (Balb/C 3T3 fibroblasts; [12]) | cell growth t2/t1 (Balb/C 3T3 fibroblasts; 10^-5M) | further results
NC(=NCCCCCCN=C(N)N=C(N)Nc1ccc(Cl)cc1)N=C(N)Nc1ccc(Cl)cc1.O=C(O)/C=C/CCCCCCCCC(=O)O [Chlorhexidine Traumatate, chlorhexidine trans-traumatate] | 8.00 | 40.00 | 2.00 | 2.00 | 2.00 | > 10000 µg/mL | 8.00 |  |  |  |  |  |  |  |  |  |  |  |  |  | 
CC[C@H]1OC(=O)[C@H](C)[C@@H](O[C@H]2C[C@@](C)(OC)[C@@H](O)[C@H](C)O2)[C@H](C)[C@@H](O[C@@H]2O[C@H](C)C[C@H](N(C)C)[C@H]2O)[C@](C)(O)C[C@@H](C)C(=O)[C@H](C)[C@@H](O)[C@]1(C)O.CC[C@H]1OC(=O)[C@H](C)[C@@H](O[C@H]2C[C@@](C)(OC)[C@@H](O)[C@H](C)O2)[C@H](C)[C@@H](O[C@@H]2O[C@H](C)C[C@H](N(C)C)[C@H]2O)[C@](C)(O)C[C@@H](C)C(=O)[C@H](C)[C@@H](O)[C@]1(C)O.O=C(O)/C=C/CCCCCCCCC(=O)O [Erythromycin Traumatate, Erythromycin trans-traumatate] | 10,000.00 | 10,000.00 |  | > 10,000 | 1,000.00 |  | 10,000.00 | > 10000 µg/mL | poorly soluble | capable to promote cell growth at all the tested doses | 0.370 | 0.352 | 0.344 | 0.365 | 0.369 | 0.368 | 0.919 | 0.921 | 1.074 | 159.16% | organic solvent solubility ([3]; in ethanol): > 10000 µg/mL; cell growth t2/t1 (Balb/C 3T3 fibroblasts; 10^-6M): 148.64%; cell growth t2/t1 (Balb/C 3T3 fibroblasts; 10^-7M): 196.81%; cell growth effect compared to traumatic acid (Balb/C 3T3 fibroblasts): more consistent if compared to the corresponding one of the parent compound traumatic acid
NC[C@H]1O[C@H](O[C@H]2[C@H](O)[C@@H](O[C@H]3O[C@H](CO)[C@@H](O)[C@H](N)[C@H]3O)[C@H](N)C[C@@H]2N)[C@H](N)C[C@@H]1O.NC[C@H]1O[C@H](O[C@H]2[C@H](O)[C@@H](O[C@H]3O[C@H](CO)[C@@H](O)[C@H](N)[C@H]3O)[C@H](N)C[C@@H]2N)[C@H](N)C[C@@H]1O.O=C(O)/C=C/CCCCCCCCC(=O)O.O=C(O)/C=C/CCCCCCCCC(=O)O.O=C(O)/C=C/CCCCCCCCC(=O)O.O=C(O)/C=C/CCCCCCCCC(=O)O.O=C(O)/C=C/CCCCCCCCC(=O)O [Tobramycin Traumatate, tobramycin trans-traumatate] | 1,000.00 | 5,000 |  |  |  | > 10000 µg/mL | 200.00 |  |  |  |  |  |  |  |  |  |  |  |  |  | solubility in water ([2]; water): > 10000 µg/mL
O=C([O-])/C=C/CCCCCCCCC(=O)[O-].[Zn+2] [Zinc Traumatate, zinc trans-traumatate] |  |  |  |  |  |  |  |  | poorly soluble |  |  |  |  |  |  |  |  |  |  |  | MIC (St.aureus ATCC 65380; Staphylococcus aureus, ATCC65380, read-out: MINIMAL BACTERIAL CONCENTRATION): > 10000 µg/mL; MIC (Ps.aeruginosa ATCC 35422; Pseudomonas aeruginosa, ATCC35422, read-out: MINIMAL BACTERIAL CONCENTRATION): > 10000 µg/mL; MIC ([1]; Staphylococcus epidermidis, ATCC14990; Table 2.b)4, read-out: MINIMAL BACTERIAL CONCENTRATION): > 10000 µg/mL; MIC (C.albicans ATCC 10231; Candida albicans, ATCC10231; Table 2.b)6, read-out: MINIMAL BACTERIAL CONCENTRATION): > 10000 µg/mL; MIC (B.subtilis ATCC 6633; Bacillus subtilis, ATCC6633; Table 2.b)5, read-out: MINIMAL BACTERIAL CONCENTRATION): > 10000 µg/mL; solubility ([3]; 5% nh3): > 10000 µg/mL; organic solvent solubility ([3]; in DMSO, in words): poorly soluble; organic solvent solubility ([3]; in ethanol, in words): poorly soluble; MIC (E.coli ATCC 35218; Escherichia coli, ATCC35218, read-out: MINIMAL BACTERIAL CONCENTRATION): > 10000 µg/mL
rolitetracycline trans-traumatate [Rolitetracycline Traumatate] | 5,000.00 | 10,000.00 | 200.00 | 1,000.00 | 40.00 |  | 1,000.00 | > 10000 µg/mL |  | capable to promote cell growth at all the tested doses | 0.46 | 0.475 | 0.482 | 0.255 | 0.356 | 0.287 | 0.678 | 0.660 | 0.828 | 166.39% | solubility in water ([3]; water): > 10000 µg/mL; cell growth t2/t1 (Balb/C 3T3 fibroblasts; 10^-6M): 186.69%; cell growth t2/t1 (Balb/C 3T3 fibroblasts; 10^-7M): 185.44%; cell growth effect compared to traumatic acid (Balb/C 3T3 fibroblasts): more consistent if compared to the corresponding one of the parent compound traumatic acid
silver trans-traumatate [Silver Traumatate] | 40.00 | 40.00 | 200.00 | > 10,000 | 200.00 |  | 40.00 |  |  |  |  |  |  |  |  |  |  |  |  |  | solubility in 5% NH3 ([2]; 5% nh3): > 10000 µg/mL
